We go through one compound from patent US12435074B2, “Physics-driven discovery of novel small therapeutic compounds for use as a BCL-2 inhibitor” (BAHCESEHIR UNIVERSITESI, priority 2020, dated 2025).

The assay concerns HCT-116 colon cancer cell line. Briefly: MTT cell proliferation assay on HCT-116 cells. It counts as cell-based. On the procedure: For cell culture experiments various cancer cell lines, HCT-116 colon cancer, U87-MG glial tumor, MCF7 breast cancer cell lines were used. Cells were seeded with high glucose DMEM medium (Biosera) supplemented with 10% FBS (Gibco) and 1X penicillin/streptomycin (Multicell). Twenty-four hours prior to molecule treatment, 10,000 cells were seeded into each well of 24-well cell culture plates. Molecules were used by preparing 4 mM stock solution in DMSO (Amresco). For molecule treatment, molecule stock solutions were diluted in DMEM with 10% FBS and added onto cells in each corresponding well. Final concentration of vehicle DMSO was 2% at maximum. […] We calculated the number of cells to be seeded to make sure that none of the cells reaches more than 60% confluency during the treatment period, as higher plate confluency levels would slow down cell proliferation independently from the molecule treatment.
Values of half-maximal inhibitory concentration were (IC50) determined by MTT cell proliferation assays. […] 570 nm absorbance values were recorded and IC50 values were calculated by dose response—inhibition curves and nonlinear regression analysis on GraphPad Prism 8 software. […] Following the initial incubation day, molecules were added and after incubation with MTT at 37° C. for 4 hours, formazan was solubilized with DMSO (Sigma-Aldrich, St. Louis, USA) and absorbance was measured at 570 nm. […]

Each structure is given as a SMILES string.

For `CCC(C)(C)C1CCc2c(sc(NC(=O)c3cc(-c4ccc(Cl)s4)nc4ccccc34)c2C(N)=O)C1` (centres unmarked) [compound of formula I], the “proliferation of HCT-116 cells compared to vehicle group” value (FIG. 1, versus vehicle (max 2% DMSO)) was “reduced proliferation and apoptotic cell structures”. In addition, for the setting “Homo sapiens, 72 h, single treatment, three days results, 570 nm absorbance, read-out: IC50 (half-maximal inhibitory concentration)”, the IC50 amounted to 130 µM.
